Data on 22 compounds can be found in patent US9540343B2 (Gilead Sciences, Inc., priority 2011, dated 2017).

One series in a line: in vitro. As to conditions: human, uninfected MT-4 cells, CC50 (nM), same protocol as Test A, CellTiter-Glo. Summed up: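 Cytoprotection read-out: CellTiter-Glo chemiluminescence after 5 days at 37 °C of HIV-IIIb-infected MT-4 cells (m.o.i. 0.003) with compound in 10-point 3-fold dilutions, quadruplicate, 10% FBS. Cytotoxicity (CC50) measured identically without virus.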
(In general: ATP-based viability assays read luminescence as a measure of living cells.)

A further series deals with HIV-IIIb. The series can be described thus: Test A: Antiviral assay in MT4 cells. The series is classed as cell-based, HIV-1. As to conditions: MT-4 cells infected with HIV-IIIb, 5 days, CellTiter-Glo; for inhibition at 2 µM: Human immunodeficiency virus 1, IIIB, MT4, 120 h, read-out: % inhibition at 2 μM, percent inhibition of virus-induced cell killing, from dose response curve at 2 uM drug.

Molecules are shown by their SMILES.

The term CC50 denotes the concentration that lowers cell viability or growth by half. Low readings indicate harm at low concentration, high ones better tolerance by the cells. For orientation: inhibition means the change of the read-out against control, counted positive when it falls. Turning to `NC(=O)c1cc(-c2cccnc2[C@H](Cc2cc(F)cc(F)c2)NC(=O)Cn2nc3c(c2C(F)(F)F)C(=O)C2CC32)ccc1F` (stereo partly drawn) [Example 346D, 5-(2-((1S)-2-(3,5-difluorophenyl)-1-(2-(4-oxo-3-(trifluoromethyl)-4,4-a,5,5a-tetrahydro-2H-cyclopropa[4,5]cyclopenta[1,2-c]pyrazol-2-yl)acetamido)ethyl)pyridin-3-yl)-2-fluorobenzamide], the CC50 at 5 days in “in vitro” was found to be 39000 nM. Further, the inhibition at 2 µM with HIV-IIIb was 1%.

`N#Cc1nn(CC(=O)N[C@@H](Cc2cc(F)cc(F)c2)c2ncccc2-c2ccc(F)c(C(N)=O)c2)c2c1C1CC1C2(F)F` (stereo partly drawn) [Example 254, 5-(2-((1S)-1-(2-(3-cyano-5,5-difluoro-3b,4,4a,5-tetrahydro-1H-cyclopropa[3,4]cyclopenta[1,2-c]pyrazol-1-yl)acetamido)-2-(3,5-difluorophenyl)ethyl)pyridin-3-yl)-2-fluorobenzamide] gave a CC50 at 5 days in the series “in vitro” of 16600 nM. In addition, in the series on HIV-IIIb, the inhibition at 2 µM was 91%.

Consider `NC(=O)c1cc(-c2cccnc2[C@H](Cc2cc(F)cc(F)c2)NC(=O)Cn2nc(C(F)F)c3c2C(F)(F)CCC3)ccc1F` [Example 380, (S)-5-(2-(1-(2-(3-(difluoromethyl)-7,7-difluoro-4,5,6,7-tetrahydro-1H-indazol-1-yl)acetamido)-2-(3,5-difluorophenyl)ethyl)pyridin-3-yl)-2-fluorobenzamide], for which the CC50 at 5 days in “in vitro” was found to be 18300 nM. Besides, in the series on HIV-IIIb, the inhibition at 2 µM turned out to be 97%.

In turn, `CC(C)(C)OC(=O)NCc1ccc2c(CC(=O)N[C@@H](Cc3cc(F)cc(F)c3)c3ncccc3-c3ccc(Cl)cc3)c[nH]c2c1` [Example 526, (S)-tert-butyl (3-(2-(1-(3-(4-chlorophenyl)pyridin-2-yl)-2-(3,5-difluorophenyl)ethylamino)-2-oxoethyl)-1H-indol-6-yl)methylcarbamate] yielded a cytotoxic concentration (CC50) at 5 days in “in vitro” of 10000 nM. For the same compound, in the series with HIV-IIIb, the inhibition at 2 µM was 50%.

Consider `CC(C)c1nccn1CC(=O)N[C@@H](Cc1cc(F)cc(F)c1)c1ncccc1-c1ccc(F)c(C(N)=O)c1` [Example 537, (S)-5-(2-(2-(3,5-difluorophenyl)-1-(2-(2-isopropyl-1H-imidazol-1-yl)acetamido)ethyl)pyridin-3-yl)-2-fluorobenzamide], for which the CC50 at 5 days in “in vitro” was > 53200 nM. The inhibition at 2 µM in the series with HIV-IIIb was 2%.

In the series “in vitro”, `COc1ccc(-c2cccnc2[C@@H](Cc2ccccc2)NC(=O)Cn2nc(C(F)(F)F)c3c2CCCC3)c(C)c1` [Example 18, (R)—N-(1-(3-(4-methoxy-2-methylphenyl)pyridin-2-yl)-2-phenylethyl)-2-(3-(trifluoromethyl)-4,5,6,7-tetrahydro-1H-indazol-1-yl)acetamide] returned a CC50 at 5 days of 14600 nM. Also, the inhibition at 2 µM in the series with HIV-IIIb worked out at 0%.

In turn, `NC(=O)c1cc(-c2cccnc2[C@H](Cc2cc(F)cc(F)c2)NC(=O)Cn2c(=O)[nH]c3cc(Cl)c(Cl)cc32)ccc1F` [Example 309, (S)-5-(2-(1-(2-(5,6-dichloro-2-oxo-2,3-dihydro-1H-benzo[d]imidazol-1-yl)acetamido)-2-(3,5-difluorophenyl)ethyl)pyridin-3-yl)-2-fluorobenzamide] displayed a CC50 at 5 days in “in vitro” of 12000 nM. Further, in the series on HIV-IIIb, the inhibition at 2 µM came to 9%.

Take `NC(=O)c1cc(-c2cccnc2[C@H](Cc2cc(F)cc(F)c2)NC(=O)Cn2nc(C(F)(F)F)c3c2C(F)(F)CCC3=O)ccc1F` [Example 340B, (S)-5-(2-(1-(2-(7,7-difluoro-4-oxo-3-(trifluoromethyl)-4,5,6,7-tetrahydro-1H-indazol-1-yl)acetamido)-2-(3,5-difluorophenyl)ethyl)pyridin-3-yl)-2-fluorobenzamide]: half-maximal cytotoxicity in “in vitro” (CC50 at 5 days) was put at 32800 nM. Moreover, the inhibition at 2 µM with HIV-IIIb came out at 32%.

Compound `CC(C)(C)NC(=O)c1cc(-c2cccnc2[C@H](Cc2cc(F)cc(F)c2)NC(=O)Cc2c[nH]c3ccc(F)cc23)ccc1F` [Example 417, (S)—N-tert-butyl-5-(2-(2-(3,5-difluorophenyl)-1-(2-(5-fluoro-1H-indol-3-yl)acetamido)ethyl)pyridin-3-yl)-2-fluorobenzamide] displayed a CC50 at 5 days in the series “in vitro” of 12800 nM. Besides, the inhibition at 2 µM in the series on HIV-IIIb turned out to be 8%.

`NC(=O)c1cc(-c2cccnc2[C@H](Cc2cc(F)cc(F)c2)NC(=O)Cn2nc(C(=O)O)c3c2COC3)ccc1F` [Example 456, (S)-1-(2-(1-(3-(3-carbamoyl-4-fluorophenyl)pyridin-2-yl)-2-(3,5-difluorophenyl)ethylamino)-2-oxoethyl)-4,6-dihydro-1H-furo[3,4-c]pyrazole-3-carboxylic acid]: the CC50 at 5 days in the series “in vitro” was > 53200 nM. Further, in the series with HIV-IIIb, the inhibition at 2 µM was determined as 0%.

In the series “in vitro”, `COc1ccc(-c2cccnc2C(Cc2cc(F)cc(F)c2)NC(=O)Cc2c[nH]c3ccc(O)cc23)c(C)c1` (centres unmarked) [Example 5, N-(2-(3,5-difluorophenyl)-1-(3-(4-methoxy-2-methylphenyl)pyridin-2-yl)ethyl)-2-(5-hydroxy-1H-indol-3-yl)acetamide] registered a CC50 at 5 days of 32700 nM. Further, the inhibition at 2 µM in the series on HIV-IIIb is 76%.

In turn, `NC(=O)c1cc(-c2cccnc2[C@H](Cc2cc(F)cc(F)c2)NC(=O)Cn2c3c(c4ccccc42)CCCC3)ccc1F` [Example 563, (S)-5-(2-(2-(3,5-difluorophenyl)-1-(2-(3,4-dihydro-1H-carbazol-9(2H)-yl)acetamido)ethyl)pyridin-3-yl)-2-fluorobenzamide] returned a CC50 at 5 days in the series “in vitro” of 27000 nM. Further, the inhibition at 2 µM in the series with HIV-IIIb was found to be 62%.

For the compound `NC(=O)c1cc(-c2cccnc2[C@H](Cc2cc(F)cc(F)c2)NC(=O)Cn2nc(C(F)(F)F)c3c2CCCC3=O)ccc1F` [Example 79F, (S)-5-(2-(2-(3,5-difluorophenyl)-1-(2-(4-oxo-3-(trifluoromethyl)-4,5,6,7-tetrahydro-1H-indazol-1-yl)acetamido)ethyl)pyridin-3-yl)-2-fluorobenzamide], the CC50 at 5 days in “in vitro” is > 50600 nM. Also, the inhibition at 2 µM in the series on HIV-IIIb amounted to 19%.

As to `NC(=O)c1cc(-c2cccnc2[C@H](Cc2cc(F)cc(F)c2)NC(=O)Cn2cnc3c(=O)[nH]ccc32)ccc1F` [Example 336, (S)-5-(2-(2-(3,5-difluorophenyl)-1-(2-(4-oxo-4,5-dihydro-1H-imidazo[4,5-c]pyridin-1-yl)acetamido)ethyl)pyridin-3-yl)-2-fluorobenzamide], the cytotoxic concentration (CC50) at 5 days in the series “in vitro” is > 53200 nM. The inhibition at 2 µM in the series with HIV-IIIb was determined as 0%.

Turning to `CC(C(=O)N[C@@H](Cc1cc(F)cc(F)c1)c1ncccc1-c1ccc(F)c(C(N)=O)c1)n1ccc(C(F)(F)F)n1` (stereo partly drawn) [Example 507B, 5-(2-((1S)-2-(3,5-difluorophenyl)-1-(2-(3-(trifluoromethyl)-1H-pyrazol-1-yl)propanamido)ethyl)pyridin-3-yl)-2-fluorobenzamide], in “in vitro”, the CC50 at 5 days was > 45300 nM. Moreover, the inhibition at 2 µM in the series on HIV-IIIb stood at 22%.

With `CC(C)c1cc(C(=O)O)nn1CC(=O)N[C@@H](Cc1cc(F)cc(F)c1)c1ncccc1-c1ccc(F)c(C(N)=O)c1` [Example 521], the CC50 at 5 days in “in vitro” was > 53200 nM. In addition, the inhibition at 2 µM with HIV-IIIb was determined as 0%.

In “in vitro”, `O=C(Cn1nc(C(F)F)c2c1C(F)(F)C1CC21)N[C@@H](Cc1cc(F)cc(F)c1)c1ncccc1-c1cncc2ccccc12` (stereo partly drawn) [Example 120, 2-(3-(difluoromethyl)-5,5-difluoro-3b,4,4a,5-tetrahydro-1H-cyclopropa[3,4]cyclopenta[1,2-c]pyrazol-1-yl)-N—((S)-2-(3,5-difluorophenyl)-1-(3-(isoquinolin-4-yl)pyridin-2-yl)ethyl)acetamide] showed a CC50 at 5 days of 13800 nM. Besides, in the series on HIV-IIIb, the inhibition at 2 µM turned out to be 73%.

With `Cc1cc(=O)n(CC(=O)N[C@@H](Cc2cc(F)cc(F)c2)c2ncccc2-c2ccnc(C(N)=O)c2)c2ccccc12` [Example 362, (S)-2-(2-(3,5-difluorophenyl)-1-(2-(4-methyl-2-oxoquinolin-1(2H)-yl)acetamido)ethyl)-3,4′-bipyridine-2′-carboxamide], the CC50 at 5 days in the series “in vitro” is > 53000 nM. Besides, the inhibition at 2 µM in the series on HIV-IIIb is 23%.

The compound `CCc1c(C#CC(C)(C)C)c(C(F)(F)F)nn1CC(=O)N[C@@H](Cc1cc(F)cc(F)c1)c1ncccc1-c1ccc(F)c(C(N)=O)c1` [Example 280, (S)-5-(2-(2-(3,5-difluorophenyl)-1-(2-(4-(3,3-dimethylbut-1-ynyl)-5-ethyl-3-(trifluoromethyl)-1H-pyrazol-1-yl)acetamido)ethyl)pyridin-3-yl)-2-fluorobenzamide] returned a CC50 at 5 days in the series “in vitro” of 4180 nM. In addition, in the series with HIV-IIIb, the inhibition at 2 µM was 0%.

`O=C(Cn1nc(C(F)F)c2c1C(F)(F)C1CC21)N[C@@H](Cc1cc(F)cc(F)c1)c1ncccc1-c1cccc2ncccc12` (stereo partly drawn) [Example 420, (S)—N-(1-(3-(isoquinole-5-yl)-pyridin-2-yl)-2-(3,5-difluorophenyl)ethyl)-2-(3-(difluoromethyl)-5,6-dihydro-4,5-(methano)-6,6-difluoro-cyclopenta[c]pyrazol-1(4H)-yl)acetamide] registered a CC50 at 5 days in the series “in vitro” of 18700 nM. In the series on HIV-IIIb, the inhibition at 2 µM came to 110%.

What is called % inhibition is the drop in the measured response relative to a control, in per cent. Read a high % inhibition as a response far below the control. `CCC(C(=O)N[C@@H](Cc1cc(F)cc(F)c1)c1ncccc1-c1ccc(F)c(C(N)=O)c1)n1cc(C(F)(F)F)cn1` (single isomer, unassigned) [Example 565] returned a CC50 at 5 days in the series “in vitro” of 37600 nM. In addition, the “% inhibition at 2 μM” value with HIV-IIIb (percent inhibition of virus-induced cell killing, from dose response curve at 2 uM drug) came to 0%.

On to `O=C(Cn1nc(C(F)(F)F)c2c1C1CC1CC2)N[C@@H](Cc1cc(F)cc(F)c1)c1ncccc1-c1cnc2[nH]ccc2c1` (stereo partly drawn) [Example 379, N—((S)-1-(3-(1H-pyrrolo[2,3-b]pyridin-5-yl)pyridin-2-yl)-2-(3,5-difluorophenyl)ethyl)-2-(3-(trifluoromethyl)-5,5a,6,6a-tetrahydrocyclopropa[g]indazol-1(4H)-yl)acetamide], for which the 50% cytotoxic concentration (CC50) at 5 days in the series “in vitro” turned out to be 9240 nM. For the same compound, in the series with HIV-IIIb, the inhibition at 2 µM amounted to 112%.
